# Biological target: T1, Human PPARα (Homo sapiens, UniProt Q07869)
# T1 construct: host or cells: proprietary non-human mammalian cells
# T1 sequence (Q07869 1-468): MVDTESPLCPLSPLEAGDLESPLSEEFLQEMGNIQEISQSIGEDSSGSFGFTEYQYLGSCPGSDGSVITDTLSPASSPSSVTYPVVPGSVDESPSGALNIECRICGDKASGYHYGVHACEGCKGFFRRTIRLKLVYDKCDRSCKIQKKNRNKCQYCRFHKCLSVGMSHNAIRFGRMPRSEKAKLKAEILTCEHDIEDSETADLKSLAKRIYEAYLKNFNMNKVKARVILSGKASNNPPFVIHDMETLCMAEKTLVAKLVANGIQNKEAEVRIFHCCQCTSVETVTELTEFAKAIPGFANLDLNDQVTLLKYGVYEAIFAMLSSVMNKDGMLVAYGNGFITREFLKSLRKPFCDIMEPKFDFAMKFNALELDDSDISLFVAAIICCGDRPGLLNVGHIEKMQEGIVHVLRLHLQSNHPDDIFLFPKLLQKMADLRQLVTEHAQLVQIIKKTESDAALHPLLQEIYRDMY
# Experiment: Human PPARα Reporter Assay (luciferase)
# Assay type: cell-based
# Conditions: human PPARα reporter cells, overnight incubation, antagonism; read-out: Luciferase IC50
# Summary of the method: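 Non-human mammalian cells constitutively expressing human PPARα with a PPARα-responsive luciferase reporter were dosed with compounds right after plating. After overnight incubation, media removed and detection reagent added; luminescence taken as proportional to PPARα activation, agonist or antagonist mode.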
row,IC50,Compound
1,7 nM,"CCn1c(CCCc2ccc(-c3ccc(OC)c(NS(=O)(=O)c4ccc(OC)nc4)n3)cc2)nn(Cc2ccc(C(C)(C)C)cc2)c1=O [Example 114, 1-{[4-(tert-Butyl)phenyl]methyl}-4-ethyl-3-{3-[4-(5-methoxy-6-{[(6-methoxy(3-pyridyl))sulfonyl]amino}(2-pyridyl))phenyl]propyl}-1,2,4-triazolin-5-one]"
2,10 nM,"CCOc1ccc(-c2ccc(CCCc3nn(Cc4ccc(C(C)(C)C)cc4)c(=O)n3CC)cc2)cc1CC(=O)O [Example 38, 2-(4′-(3-(1-(4-(tert-Butyl)benzyl)-4-ethyl-5-oxo-4,5-dihydro-1H-1,2,4-triazol-3-yl)propyl)-4-ethoxy-[1,1′-biphenyl]-3-yl)acetic acid]"
3,647 nM,"CCn1c(CCCc2ccc(-c3cccc(CN)c3)cc2)nn(Cc2ccc(C(C)(C)C)cc2)c1=O [Example 172, 3-(3-{4-[3-(Aminomethyl)phenyl]phenyl}propyl)-1-{[4-(tert-butyl)phenyl]methyl}-4-ethyl-1,2,4-triazolin-5-one]"
4,50 nM,"CCn1c(CCCc2ccc(-c3cnc(C4(O)COC4)s3)cc2)nn(Cc2ccc(C(C)(C)C)cc2)c1=O [Example 204, 1-(4-(tert-Butyl)benzyl)-4-ethyl-3-(3-(4-(2-(3-hydroxyoxetan-3-yl)thiazol-5-yl)phenyl)propyl)-1H-1,2,4-triazol-5(4H)-one]"
5,499 nM,"CCn1c(CCCc2ccc(-c3cccc(CC(=O)O)c3)cc2)nn(Cc2ccc(C(C)(C)C)s2)c1=O [Example 54, 2-(4′-(3-(1-((5-(tert-Butyl)thiophen-2-yl)methyl)-4-ethyl-5-oxo-4,5-dihydro-1H-1,2,4-triazol-3-yl)propyl)-[1,1′-biphenyl]-3-yl)acetic acid]"
6,426 nM,"CCn1c(CCCc2ccc(-c3cc(C(F)(F)F)cc(CC(=O)O)n3)cc2)nn(Cc2ccc(C(C)(C)C)cc2)c1=O [Example 48, 2-(6-{4-[3-(1-{[4-(tert-Butyl)phenyl]methyl}-4-ethyl-5-oxo(1,2,4-triazolin-3-yl))propyl]phenyl}-4-(trifluoromethyl)-2-pyridyl)acetic acid]"
7,417 nM,"CCn1c(CCCc2ccc(-c3cccc(CNS(C)(=O)=O)c3)cc2)nn(Cc2ccc(C(C)(C)C)cc2)c1=O [Example 178, 1-{[4-(tert-Butyl)phenyl]methyl}-4-ethyl-3-{3-[4-(3-{[(methylsulfonyl)amino]methyl}phenyl)phenyl]propyl}-1,2,4-triazolin-5-one]"
8,587 nM,"CCn1c(CCCc2ccc(-c3ccc(OC)c(CNS(C)(=O)=O)c3)cc2)nn(Cc2ccc(C(C)(C)C)cc2)c1=O [Example 186, 1-{[4-(tert-Butyl)phenyl]methyl}-4-ethyl-3-{3-[4-(4-methoxy-3-{[(methylsulfonyl)amino]methyl}phenyl)phenyl]propyl}-1,2,4-triazolin-5-one]"
9,241 nM,"CCn1c(CCCc2ccc(-c3cccc(NC(=O)NS(=O)(=O)c4ccccc4)n3)cc2)nn(Cc2ccc(C(C)(C)C)cc2)c1=O [Example 154, N-((6-(4-(3-(1-(4-(tert-Butyl)benzyl)-4-ethyl-5-oxo-4,5-dihydro-1H-1,2,4-triazol-3-yl)propyl)phenyl)pyridin-2-yl)carbamoyl)benzenesulfonamide]"
10,11 nM,"CCn1c(CCCc2ccc(-c3ccc(OC(F)(F)F)c(CC(=O)O)c3)cc2)nn(Cc2ccc(C(C)(C)C)cc2)c1=O [Example 130, 2-(4′-(3-(1-(4-(tert-Butyl)benzyl)-4-ethyl-5-oxo-4,5-dihydro-1H-1,2,4-triazol-3-yl)propyl)-4-(trifluoromethoxy)-[1,1′-biphenyl]-3-yl)acetic acid]"
11,37 nM,"CCn1c(CCCc2ccc(-c3cccc(NS(=O)(=O)Cc4ccccc4)n3)cc2)nn(Cc2ccc(C(C)(C)C)cc2)c1=O [Example 78, 1-{[4-(tert-Butyl)phenyl]methyl}-4-ethyl-3-{3-[4-(6-{[benzylsulfonyl]amino}(2-pyridyl))phenyl]propyl}-1,2,4-triazolin-5-one]"
12,898 nM,"CCn1c(CCCc2ccc(-c3ccc(CC(=O)O)nc3)cc2)nn(Cc2ccc(C(C)(C)C)cc2)c1=O [Example 43, 2-(5-{4-[3-(1-{[4-(tert-Butyl)phenyl]methyl}-4-ethyl-5-oxo-1,2,4-triazolin-3-yl)propyl]phenyl}-2-pyridyl)acetic acid]"
13,945 nM,"CCn1c(CCCc2ccc(-c3cccc(NS(=O)(=O)c4ccc(-c5ccc(OC)cc5)cc4)n3)cc2)nn(Cc2ccc(C(C)(C)C)cc2)c1=O [Example 74, 1-{[4-(tert-Butyl)phenyl]methyl}-4-ethyl-3-(3-{4-[6-({[4-(4-methoxyphenyl)phenyl]sulfonyl}amino)(2-pyridyl)]phenyl}propyl)-1,2,4-triazolin-5-one]"
14,641 nM,"CCn1c(CCCc2ccc(-c3cc(OC)c(N)cn3)cc2)nn(Cc2ccc(C(C)(C)C)cc2)c1=O [Example 111, 3-{3-[4-(5-Amino-4-methoxy(2-pyridyl))phenyl]propyl}-1-{[4-(tert-butyl)phenyl]methyl}-4-ethyl-1,2,4-triazolin-5-one]"
15,188 nM,"CCOc1ccc(-c2ccc(CCCc3nn(Cc4ccc(C(C)(C)C)cc4)c(=O)n3CC)cc2)cc1C1(C(=O)O)CC1 [Example 122, 1-(4′-(3-(1-(4-(tert-Butyl)benzyl)-4-ethyl-5-oxo-4,5-dihydro-1H-1,2,4-triazol-3-yl)propyl)-4-ethoxy-[1,1′-biphenyl]-3-yl)cyclopropanecarboxylic acid]"
16,61 nM,"CCn1c(CCCc2ccc(-c3ccc(OC)c(NS(=O)(=O)c4ccccc4)c3)cc2)nn(Cc2ccc(C(C)(C)C)cc2)c1=O [Example 151, 1-{[4-(tert-Butyl)phenyl]methyl}-4-ethyl-3-[3-(4-{4-methoxy-3-[(phenylsulfonyl)amino]phenyl}phenyl)propyl]-1,2,4-triazolin-5-one]"
17,707 nM,"CCn1c(CCCc2ccc(-c3csc(CC(=O)O)c3)cc2)nn(Cc2ccc(C(C)(C)C)cc2)c1=O [Example 39, 2-(4-(4-(3-(1-(4-(tert-Butyl)benzyl)-4-ethyl-5-oxo-4,5-dihydro-1H-1,2,4-triazol-3-yl)propyl)phenyl)thiophen-2-yl)acetic acid]"
18,255 nM,"CCn1c(CCCc2ccc(-c3cccc(N)c3)cc2)nn(Cc2ccc(C(C)(C)C)cc2)c1=O [Example 6, 3-(3-(3′-Amino-[1,1′-biphenyl]-4-yl)propyl)-1-(4-(tert-butyl)benzyl)-4-ethyl-1H-1,2,4-triazol-5(4H)-one]"
19,36 nM,"CCn1c(CCCc2ccc(-c3ccc(OC)c(NS(=O)(=O)CC)n3)cc2)nn(Cc2ccc(C(C)(C)C)cc2)c1=O [Example 189, 1-{[4-(tert-Butyl)phenyl]methyl}-4-ethyl-3-[3-(4-{6-[(ethylsulfonyl)amino]-5-methoxy(2-pyridyl)}phenyl)propyl]-1,2,4-triazolin-5-one]"
20,41 nM,"CCn1c(CCCc2ccc(-c3ccc(C4(F)COC4)cn3)cc2)nn(Cc2ccc(C(C)(C)C)cc2)c1=O [Example 191, 1-(4-(tert-Butyl)benzyl)-4-ethyl-3-(3-(4-(5-(3-fluorooxetan-3-yl)pyridine-2-yl)phenyl)propyl)-1H-1,2,4-triazol-5(4H)-one]"
21,488 nM,"CCn1c(CCCc2ccc(-c3cccc(NS(=O)(=O)C4CC4)n3)cc2)nn(Cc2ccc(C(C)(C)C)cc2)c1=O [Example 42, 1-{[4-(tert-Butyl)phenyl]methyl}-3-[3-(4-{6-[(cyclopropylsulfonyl)amino](2-pyridyl)}phenyl)propyl]-4-ethyl-1,2,4-triazolin-5-one]"
22,410 nM,"CCn1c(CCCc2ccc(-c3ccc(OC)c(CC(=O)O)c3)c(OC)c2)nn(Cc2ccc(C(C)(C)C)cc2)c1=O [Example 159, 2-(4′-(3-(1-(4-(tert-Butyl)benzyl)-4-ethyl-5-oxo-4,5-dihydro-1H-1,2,4-triazol-3-yl)propyl)-2′,4-dimethoxy-[1,1′-biphenyl]-3-yl)acetic acid]"
23,638 nM,"CCn1c(CCCc2ccc(-c3ccc(C(F)(F)F)c(N)n3)cc2)nn(Cc2ccc(C(C)(C)C)cc2)c1=O [Example 161, 3-(3-{4-[6-Amino-5-(trifluoromethyl)(2-pyridyl)]phenyl}propyl)-1-{[4-(tert-butyl)phenyl]methyl}-4-ethyl-1,2,4-triazolin-5-one]"
24,136 nM,"CCn1c(CCCc2ccc(-c3ccc(NS(=O)(=O)c4ccc(OC)cc4)cn3)cc2)nn(Cc2ccc(C(C)(C)C)cc2)c1=O [Example 91, 1-{[4-(tert-Butyl)phenyl]methyl}-4-ethyl-3-{3-[4-(5-{[(4-methoxyphenyl)sulfonyl]amino}(2-pyridyl))phenyl]propyl}-1,2,4-triazolin-5-one]"
25,703 nM,"CCn1c(CCCc2ccc(-c3ccc(NS(=O)(=O)c4ccc(Oc5ccc(C(F)(F)F)cn5)cc4)cn3)cc2)nn(Cc2ccc(C(C)(C)C)cc2)c1=O [Example 77, 1-{[4-(tert-Butyl)phenyl]methyl}-4-ethyl-3-[3-(4-{5-[({4-[5-(trifluoromethyl)(2-pyridyloxy)]phenyl}sulfonyl)amino](2-pyridyl)}phenyl)propyl]-1,2,4-triazolin-5-one]"
26,873 nM,"CCn1c(CCCc2ccc(-c3csc(C4(O)COC4)n3)cc2)nn(Cc2ccc(C(C)(C)C)cc2)c1=O [Example 203, 1-(4-(tert-Butyl)benzyl)-4-ethyl-3-(3-(4-(2-(3-hydroxyoxetan-3-yl)thiazol-4-yl)phenyl)propyl)-1H-1,2,4-triazol-5(4H)-one]"

# Reference: patent publication US9505728B2, “Triazolone compounds and uses thereof” (INCEPTION 2, INC., priority 2012, dated 2016)
